For experiment [1], the target named is T1, Type-1 angiotensin II receptor (Homo sapiens, UniProt P30556).
T1 sequence (P30556 whole entry): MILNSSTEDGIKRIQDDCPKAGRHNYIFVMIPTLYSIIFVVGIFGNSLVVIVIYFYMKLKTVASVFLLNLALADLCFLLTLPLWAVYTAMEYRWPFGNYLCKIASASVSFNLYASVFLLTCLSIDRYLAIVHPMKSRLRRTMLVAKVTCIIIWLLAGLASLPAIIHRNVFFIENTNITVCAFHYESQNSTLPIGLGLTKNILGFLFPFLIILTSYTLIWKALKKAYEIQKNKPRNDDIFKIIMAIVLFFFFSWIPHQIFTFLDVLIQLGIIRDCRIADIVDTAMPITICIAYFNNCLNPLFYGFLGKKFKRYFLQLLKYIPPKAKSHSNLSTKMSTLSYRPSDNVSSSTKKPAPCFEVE

The target of experiment [2] is Mu-type opioid receptor (Homo sapiens, UniProt P35372). The experiment is described as follows: biochemical. The format is functional.
Chain of Mu-type opioid receptor (P35372 whole entry): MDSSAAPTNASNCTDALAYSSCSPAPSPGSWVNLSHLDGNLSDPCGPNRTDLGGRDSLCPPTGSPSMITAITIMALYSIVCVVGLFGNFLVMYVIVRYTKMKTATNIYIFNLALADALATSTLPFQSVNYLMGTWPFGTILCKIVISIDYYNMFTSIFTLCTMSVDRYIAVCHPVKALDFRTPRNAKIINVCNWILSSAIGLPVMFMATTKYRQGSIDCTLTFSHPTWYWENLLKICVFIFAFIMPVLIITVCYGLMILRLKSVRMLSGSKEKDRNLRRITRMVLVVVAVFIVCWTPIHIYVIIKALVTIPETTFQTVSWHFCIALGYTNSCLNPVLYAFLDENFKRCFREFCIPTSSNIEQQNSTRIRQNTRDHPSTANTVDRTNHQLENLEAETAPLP
Experiment [3] deals with T2, Alpha-1A adrenergic receptor (Homo sapiens, UniProt P35348).
T2 sequence (P35348 whole entry): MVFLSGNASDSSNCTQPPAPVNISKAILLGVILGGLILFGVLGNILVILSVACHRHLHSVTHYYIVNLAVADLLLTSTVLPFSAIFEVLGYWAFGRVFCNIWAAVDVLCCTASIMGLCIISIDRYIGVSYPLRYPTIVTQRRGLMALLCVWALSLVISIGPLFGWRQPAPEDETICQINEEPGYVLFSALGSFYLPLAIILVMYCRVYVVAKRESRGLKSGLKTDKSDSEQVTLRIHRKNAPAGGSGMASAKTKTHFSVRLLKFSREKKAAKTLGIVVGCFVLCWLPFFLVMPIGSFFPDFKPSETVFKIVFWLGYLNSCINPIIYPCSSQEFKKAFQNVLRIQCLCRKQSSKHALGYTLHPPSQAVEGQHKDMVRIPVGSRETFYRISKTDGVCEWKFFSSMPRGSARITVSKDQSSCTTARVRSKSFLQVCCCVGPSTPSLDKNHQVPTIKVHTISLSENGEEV
Format: functional, cell-based.

The target in experiment [4] is Gamma-aminobutyric acid receptor subunit alpha-1 (Rattus norvegicus, UniProt P62813).
Chain of Gamma-aminobutyric acid receptor subunit alpha-1 (P62813 whole entry): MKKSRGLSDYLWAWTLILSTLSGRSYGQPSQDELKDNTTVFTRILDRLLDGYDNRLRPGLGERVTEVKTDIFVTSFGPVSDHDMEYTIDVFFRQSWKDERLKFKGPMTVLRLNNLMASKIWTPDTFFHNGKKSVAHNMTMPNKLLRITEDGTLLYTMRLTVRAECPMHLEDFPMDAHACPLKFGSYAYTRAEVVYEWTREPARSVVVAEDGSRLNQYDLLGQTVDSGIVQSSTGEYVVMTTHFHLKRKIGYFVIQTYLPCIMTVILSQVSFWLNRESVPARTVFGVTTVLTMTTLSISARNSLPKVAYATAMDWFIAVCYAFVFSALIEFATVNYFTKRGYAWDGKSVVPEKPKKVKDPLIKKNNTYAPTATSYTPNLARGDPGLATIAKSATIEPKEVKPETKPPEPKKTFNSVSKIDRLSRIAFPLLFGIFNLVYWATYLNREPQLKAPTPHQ
Experiment [5] concerns the target T3, Muscarinic acetylcholine receptor M1 (Homo sapiens, UniProt P11229).
T3 sequence (P11229 whole entry): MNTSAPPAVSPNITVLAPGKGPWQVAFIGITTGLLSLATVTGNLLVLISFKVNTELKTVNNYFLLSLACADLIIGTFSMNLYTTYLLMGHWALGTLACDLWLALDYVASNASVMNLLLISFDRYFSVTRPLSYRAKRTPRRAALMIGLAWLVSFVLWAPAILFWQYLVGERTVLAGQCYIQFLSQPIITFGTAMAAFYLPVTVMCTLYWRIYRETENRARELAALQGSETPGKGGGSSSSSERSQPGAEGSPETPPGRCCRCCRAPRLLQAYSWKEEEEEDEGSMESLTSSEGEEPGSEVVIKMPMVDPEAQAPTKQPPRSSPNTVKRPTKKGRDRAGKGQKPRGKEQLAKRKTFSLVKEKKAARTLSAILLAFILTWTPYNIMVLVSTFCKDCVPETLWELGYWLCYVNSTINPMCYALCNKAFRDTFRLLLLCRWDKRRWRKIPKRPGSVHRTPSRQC
The format is functional.

The target in experiment [6] is T4, Progesterone receptor (Homo sapiens, UniProt P06401).
T4 sequence (P06401 whole entry): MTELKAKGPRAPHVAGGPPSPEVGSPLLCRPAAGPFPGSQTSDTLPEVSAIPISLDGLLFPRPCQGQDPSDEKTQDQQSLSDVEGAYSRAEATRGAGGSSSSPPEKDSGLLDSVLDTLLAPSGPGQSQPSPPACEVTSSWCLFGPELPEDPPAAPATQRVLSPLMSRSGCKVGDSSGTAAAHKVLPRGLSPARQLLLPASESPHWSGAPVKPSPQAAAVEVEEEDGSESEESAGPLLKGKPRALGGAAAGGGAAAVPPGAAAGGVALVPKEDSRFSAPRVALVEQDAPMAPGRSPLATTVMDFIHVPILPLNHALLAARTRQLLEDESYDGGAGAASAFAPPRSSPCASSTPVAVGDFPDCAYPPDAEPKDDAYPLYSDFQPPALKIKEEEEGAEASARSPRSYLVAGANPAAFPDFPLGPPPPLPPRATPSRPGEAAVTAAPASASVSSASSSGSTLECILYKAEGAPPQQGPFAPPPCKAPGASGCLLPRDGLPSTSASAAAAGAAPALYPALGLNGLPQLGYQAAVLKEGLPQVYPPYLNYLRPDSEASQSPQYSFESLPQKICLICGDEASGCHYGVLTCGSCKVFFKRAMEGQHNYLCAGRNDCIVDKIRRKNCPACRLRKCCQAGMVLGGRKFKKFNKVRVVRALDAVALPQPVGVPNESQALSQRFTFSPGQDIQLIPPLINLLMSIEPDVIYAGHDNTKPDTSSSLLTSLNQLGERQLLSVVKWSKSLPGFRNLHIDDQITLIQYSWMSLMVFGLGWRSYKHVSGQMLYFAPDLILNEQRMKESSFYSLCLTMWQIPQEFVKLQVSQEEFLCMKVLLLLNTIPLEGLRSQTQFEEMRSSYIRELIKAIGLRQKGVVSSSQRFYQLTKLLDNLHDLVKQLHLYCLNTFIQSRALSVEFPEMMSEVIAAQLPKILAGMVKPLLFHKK
The format is functional.

Experiment [7] has as its target T5, Alpha-2A adrenergic receptor (Homo sapiens, UniProt P08913).
T5 sequence (P08913 whole entry): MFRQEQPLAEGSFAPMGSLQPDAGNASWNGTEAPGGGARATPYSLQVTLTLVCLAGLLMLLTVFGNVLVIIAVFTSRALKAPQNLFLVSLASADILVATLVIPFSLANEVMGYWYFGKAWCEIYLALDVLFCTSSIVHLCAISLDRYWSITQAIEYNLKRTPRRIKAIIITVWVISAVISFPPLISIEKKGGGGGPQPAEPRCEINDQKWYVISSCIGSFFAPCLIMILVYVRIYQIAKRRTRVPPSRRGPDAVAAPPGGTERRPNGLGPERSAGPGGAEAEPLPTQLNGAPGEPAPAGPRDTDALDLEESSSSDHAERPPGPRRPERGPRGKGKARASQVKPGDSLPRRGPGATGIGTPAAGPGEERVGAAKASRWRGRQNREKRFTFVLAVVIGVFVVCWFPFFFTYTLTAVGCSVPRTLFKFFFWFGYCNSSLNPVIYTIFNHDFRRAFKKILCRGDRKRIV
The format is functional, cell-based.

Experiment [8] concerns the target T2, Alpha-1A adrenergic receptor. The format is functional, cell-based. The source holds these as a separate data set.
For experiment [9], the target named is Beta-2 adrenergic receptor (Homo sapiens, UniProt P07550).
Chain of Beta-2 adrenergic receptor (P07550 whole entry): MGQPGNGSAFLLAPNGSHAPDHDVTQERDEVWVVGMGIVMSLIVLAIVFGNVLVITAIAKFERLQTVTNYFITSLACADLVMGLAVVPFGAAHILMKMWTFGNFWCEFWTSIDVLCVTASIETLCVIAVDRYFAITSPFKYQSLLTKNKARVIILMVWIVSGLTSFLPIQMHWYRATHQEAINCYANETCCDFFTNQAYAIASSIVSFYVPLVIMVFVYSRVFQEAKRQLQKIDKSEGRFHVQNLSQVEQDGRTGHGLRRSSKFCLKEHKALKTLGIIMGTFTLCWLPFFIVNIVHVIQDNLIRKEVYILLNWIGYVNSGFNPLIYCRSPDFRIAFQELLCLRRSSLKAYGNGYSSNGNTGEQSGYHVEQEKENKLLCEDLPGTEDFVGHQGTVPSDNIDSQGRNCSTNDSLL
Note: assay procedure not described here.

Consider `CC(=O)SC[C@@H](C)C(=O)N1CCC[C@H]1C(=O)N[C@@H](Cc1ccccc1)C(=O)O`, for which the AC50 in [1], in experiment [2], in experiment [3], in experiment [4], in experiment [5] and in experiment [6] was greater than 30 µM in each case. Besides, the AC50 in experiment [7], in experiment [8] and in [9] was greater than 30 µM in each case.
As for `NC(=O)CN1CCCC1=O`, the AC50 in experiment [1], in [2], in [3], in [4], in experiment [6] and in experiment [7] was greater than 30 µM in each case. The same molecule displayed an AC50 in experiment [8] greater than 30 µM.
`C[N@+]1(CCF)[C@@H]2CC[C@H]1C[C@@H](OC(=O)C(O)(c1ccccc1)c1ccccc1)C2`: the half-maximal activity concentration (AC50) in experiment [1] was greater than 30 µM; in experiment [2], greater than 30 µM; in experiment [3], greater than 30 µM; in experiment [4], greater than 30 µM; in experiment [5], 0.0066 µM; in [6], greater than 30 µM. For the same molecule, the half-maximal activity concentration (AC50) in [7], in [8] and in experiment [9] was greater than 30 µM in each case.
On to `CCN1CCCC1CNC(=O)c1cc(S(=O)(=O)CC)c(N)cc1OC` (stereo unspecified) [AMISULPRIDE], for which the concentration at half-maximal activity (AC50) in experiment [1], in experiment [2], in [3], in experiment [4], in experiment [5] and in experiment [6] was greater than 30 µM in each case. Moreover, the half-maximal activity concentration (AC50) in [7] was 13 µM.
On to `O=C(O)CCNC(=O)c1ccccc1` [BETAMIPRON], for which the AC50 in experiment [1], in [2], in experiment [3], in experiment [4], in [6] and in [7] was greater than 30 µM in each case. Further, the AC50 in experiment [8] and in experiment [9] was greater than 30 µM each time.
Regarding `CC(=O)[C@@]1(O)CC[C@H]2[C@@H]3C=C(Cl)C4=CC(=O)[C@@H]5C[C@@H]5[C@]4(C)[C@H]3CC[C@@]21C` [CYPROTERONE], the AC50 in experiment [1] is greater than 30 µM; in experiment [2], greater than 30 µM; in experiment [4] it was greater than 10 µM; in experiment [5], greater than 10 µM; in experiment [7], greater than 10 µM; in experiment [9], greater than 10 µM.
In the case of `CCCCCC(=O)O[C@]1(C(C)=O)CC[C@H]2[C@@H]3CCC4=CC(=O)CC[C@]4(C)[C@H]3CC[C@@]21C` [HYDROXYPROGESTERONE CAPROATE], the AC50 in experiment [1], in experiment [2], in experiment [3], in experiment [4], in experiment [5] and in experiment [7] was greater than 30 µM each time. For the same molecule, the concentration at half-maximal activity (AC50) in experiment [8] and in experiment [9] was greater than 30 µM each time.
On to `CC(=O)[C@]1(O)Cc2c(O)c3c(c(O)c2[C@@H](O[C@H]2C[C@H](N)[C@H](O)[C@H](C)O2)C1)C(=O)c1ccccc1C3=O` [IDARUBICIN], for which the half-maximal activity concentration (AC50) in experiment [1], in [2], in experiment [4] and in experiment [9] was greater than 30 µM each time.
Regarding `CCOC(=O)O[C@]1(C(=O)OCCl)CC[C@H]2[C@@H]3CCC4=CC(=O)C=C[C@]4(C)[C@H]3[C@@H](O)C[C@@]21C` [LOTEPREDNOL ETABONATE], the AC50 in experiment [1], in experiment [2], in [3], in [4], in experiment [5] and in experiment [7] was greater than 30 µM each time. Also, the AC50 in experiment [8] and in experiment [9] was greater than 30 µM throughout.
As for `O=C1CN=C(c2ccccc2)c2cc([N+](=O)[O-])ccc2N1` [NITRAZEPAM], the AC50 in [1] is greater than 30 µM; in experiment [2], greater than 30 µM; in [4] it was greater than 10 µM; in experiment [6], greater than 10 µM; in [7] it was greater than 10 µM; in experiment [9], greater than 10 µM.
Take `C#CCOc1ccc(N)cc1C(=O)NCCCC` [PARSALMIDE]: the half-maximal activity concentration (AC50) in [1], in experiment [2], in experiment [4], in experiment [5], in [6] and in [7] was greater than 30 µM throughout.
`COc1ccc2nc3cc(Cl)ccc3c(Nc3cc(CN4CCCC4)c(O)c(CN4CCCC4)c3)c2n1` [PYRONARIDINE]: the AC50 in experiment [1], in experiment [2], in [3], in [4], in experiment [5] and in experiment [7] was greater than 30 µM each time. Also, the AC50 in experiment [8] and in experiment [9] was greater than 30 µM in each case.
In the case of `CCN(CC)CCNC(=O)c1cc(S(C)(=O)=O)ccc1OC` [TIAPRIDE], the half-maximal activity concentration (AC50) in experiment [1], in experiment [2], in [3], in experiment [4], in experiment [6] and in experiment [7] was greater than 30 µM throughout. Also, the AC50 in experiment [8] and in experiment [9] was greater than 30 µM in each case.
Regarding `NC1CCN(c2nc3c(cc2F)c(=O)c(C(=O)O)cn3-c2ccc(F)cc2F)C1` (stereo unspecified) [TOSUFLOXACIN], the concentration at half-maximal activity (AC50) in experiment [1], in [2], in [3], in experiment [6], in experiment [7] and in experiment [8] was greater than 30 µM in each case. In experiment [9], this molecule had an AC50 greater than 30 µM.

These data come from ChEMBL document CHEMBL5291721, “A preclinical secondary pharmacology resource illuminates target-adverse drug reaction associations of marketed drugs” (Nat Commun, 2023).
